# In ChEMBL document CHEMBL4619728, “A chemically stable peptide agonist to neuromedin U receptor type 2” (Bioorg Med Chem, 2020):
# Activity calls are given as the source filed them. The rule behind the calls is not given here. Square brackets hold non-standard residues; d marks the D form. Side chains are listed from the residue outwards. Peptide text beside a SMILES is read from it. * marks the point of attachment. Propanoyl(3-cHex) = O=C(CCC1CCCCC1)*; 2Pal = N[C@@H](Cc1ccccn1)C(=O)O; 3Pal = N[C@@H](Cc1cccnc1)C(=O)O; 4Pal = N[C@@H](Cc1ccncc1)C(=O)O; hSer = N[C@@H](CCO)C(=O)O; Api = NC1(C(=O)O)CCNCC1; Dab = NCC[C@H](N)C(=O)O; Dap = NC[C@H](N)C(=O)O
# Assays:
# [1] = target: Neuromedin-U receptor 2 (Mus musculus) (UniProt Q8BZ39); assay: Agonist activity at mouse NMUR2 expressed in human HEK293 cells at 10 nM Fluo-4-AM dye based calcium mobilization assay relative to control; type: functional, cell-based
# Chain of Neuromedin-U receptor 2 (Mus musculus) (Q8BZ39 whole entry): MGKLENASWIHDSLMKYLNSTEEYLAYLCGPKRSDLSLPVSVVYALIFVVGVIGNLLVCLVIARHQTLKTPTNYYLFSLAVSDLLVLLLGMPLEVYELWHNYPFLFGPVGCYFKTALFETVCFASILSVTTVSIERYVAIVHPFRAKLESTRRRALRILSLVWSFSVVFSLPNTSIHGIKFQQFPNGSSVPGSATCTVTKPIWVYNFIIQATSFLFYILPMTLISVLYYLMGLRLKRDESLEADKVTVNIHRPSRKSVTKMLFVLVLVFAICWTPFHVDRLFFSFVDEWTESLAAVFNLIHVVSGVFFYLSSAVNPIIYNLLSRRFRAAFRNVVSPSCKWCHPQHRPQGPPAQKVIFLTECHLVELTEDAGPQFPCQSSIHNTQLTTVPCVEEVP
# [2] = Chemical stability of compound in pH 5.5 citrate buffer at 50 uM assessed as compound recovery after 72 hrs by spectrometric analysis; type: physicochemical; conditions: read-out: Drug recovery
# [3] = Chemical stability of compound in pH 7.4 phosphate buffer at 50 uM assessed as compound recovery after 72 hrs by spectrometric analysis; type: physicochemical; conditions: read-out: Drug recovery
# [4] = Toxicity in ddY mouse assessed as reduction in body weight gain at 20 ug ,ip; conditions: in vivo
# Neuromedin-U receptor 2 [5] = target: T1, Neuromedin-U receptor 2 (Homo sapiens, UniProt Q9GZQ4); assay: Agonist activity at human NMUR2 expressed in CHO cells by Fluo-4-AM dye based calcium mobilization assay; type: functional, cell-based
# T1 sequence (Q9GZQ4 whole entry): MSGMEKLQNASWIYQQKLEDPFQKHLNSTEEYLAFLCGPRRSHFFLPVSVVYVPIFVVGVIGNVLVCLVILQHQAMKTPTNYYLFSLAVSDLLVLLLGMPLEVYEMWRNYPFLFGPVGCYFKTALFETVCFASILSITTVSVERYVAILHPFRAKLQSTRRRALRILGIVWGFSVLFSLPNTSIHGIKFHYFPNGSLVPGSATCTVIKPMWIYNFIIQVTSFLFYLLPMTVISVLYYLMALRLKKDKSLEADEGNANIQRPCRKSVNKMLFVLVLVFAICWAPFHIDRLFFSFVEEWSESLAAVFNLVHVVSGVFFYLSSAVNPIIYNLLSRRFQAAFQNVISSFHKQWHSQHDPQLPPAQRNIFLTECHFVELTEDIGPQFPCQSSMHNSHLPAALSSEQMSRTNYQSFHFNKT
# [6] = target: Neuromedin-U receptor 2 (Mus musculus) (UniProt Q8BZ39); assay: Agonist activity at mouse NMUR2 expressed in human HEK293 cells Fluo-4-AM dye based calcium mobilization assay; type: functional, cell-based
# [7] = Toxicity in ddY mouse assessed as reduction in body weight gain at 25 to 250 ug intranasal administration; conditions: in vivo, inhaled_or_intranasal
# Neuromedin-U receptor 2 [8] = target: T1, Neuromedin-U receptor 2; assay: Agonist activity at human NMUR2 expressed in CHO cells at 100 nM by Fluo-4-AM dye based calcium mobilization assay; type: functional, cell-based
# [9] = target: T2, Neuromedin-U receptor 1 (Homo sapiens) (UniProt Q9HB89); assay: Agonist activity at human NMUR1 expressed in CHO cells at 1 nM by Fluo-4-AM dye based calcium mobilization assay; type: functional, cell-based
# T2 sequence (whole entry): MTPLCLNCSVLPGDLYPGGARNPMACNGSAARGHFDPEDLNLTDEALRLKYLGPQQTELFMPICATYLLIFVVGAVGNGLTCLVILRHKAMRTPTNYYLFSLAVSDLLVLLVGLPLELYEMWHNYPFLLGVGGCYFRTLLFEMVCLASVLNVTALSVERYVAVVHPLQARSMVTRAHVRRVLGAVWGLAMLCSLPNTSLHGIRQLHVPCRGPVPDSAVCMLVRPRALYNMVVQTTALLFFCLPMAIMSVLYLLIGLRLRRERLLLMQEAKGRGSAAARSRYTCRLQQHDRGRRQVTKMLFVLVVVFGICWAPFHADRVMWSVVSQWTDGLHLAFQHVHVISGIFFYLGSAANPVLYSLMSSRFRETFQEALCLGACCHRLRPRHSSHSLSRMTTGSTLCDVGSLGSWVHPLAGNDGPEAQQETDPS
# Neuromedin-U receptor 2 [10] = target: T1, Neuromedin-U receptor 2; assay: Agonist activity at human NMUR2 expressed in CHO cells at 1 nM by Fluo-4-AM dye based calcium mobilization assay; type: functional, cell-based
# [11] = target: T2, Neuromedin-U receptor 1 (Homo sapiens); assay: Agonist activity at human NMUR1 expressed in CHO cells at 100 nM by Fluo-4-AM dye based calcium mobilization assay; type: functional, cell-based
# Neuromedin-U receptor 2 [12] = target: T1, Neuromedin-U receptor 2; assay: Agonist activity at human NMUR2 expressed in CHO cells at 10 nM by Fluo-4-AM dye based calcium mobilization assay; type: functional, cell-based
# [13] = target: T2, Neuromedin-U receptor 1 (Homo sapiens); assay: Agonist activity at human NMUR1 expressed in CHO cells at 10 nM by Fluo-4-AM dye based calcium mobilization assay; type: functional, cell-based
# [14] = Chemical stability of compound in pH 5.5 acetate buffer at 50 uM assessed as compound recovery after 72 hrs by spectrometric analysis; type: physicochemical; conditions: read-out: Drug recovery
# [15] = Chemical stability of compound in pH 7.4 HEPES buffer at 50 uM assessed as compound recovery after 72 hrs by spectrometric analysis; type: physicochemical; conditions: read-out: Drug recovery
# [16] = Chemical stability of compound in MES buffer pH 5.5 at 100 mM assessed as compound recovery after 72 hrs by spectrometric analysis; type: physicochemical; conditions: read-out: Drug recovery
# [17] = Chemical stability of compound in pH 5.5 citrate-posphate buffer at 50 uM assessed as compound recovery after 72 hrs by spectrometric analysis; type: physicochemical; conditions: citrate-phosphate buffer, read-out: Drug recovery
structure (smiles),measurement,setting,value
CC(C)C[C@H](NC(=O)CCC1CCCCC1)C(=O)N[C@@H](CC(C)C)C(=O)N[C@@H](Cc1ccccn1)C(=O)N1CCC[C@H]1C(=O)N[C@@H](CCCNC(=N)N)C(=O)N[C@@H](CC(N)=O)C(N)=O ({Propanoyl(3-cHex)}-LL[2Pal]PRN-NH2),Activity,[1],20 to 40%
CC(C)C[C@H](NC(=O)CCC1CCCCC1)C(=O)N[C@@H](CC(C)C)C(=O)NC1(C(=O)N2CCC[C@H]2C(=O)N[C@@H](CCCNC(=N)N)C(=O)N[C@@H](CC(N)=O)C(N)=O)CCNCC1 ({Propanoyl(3-cHex)}-LL[Api]PRN-NH2),Activity,[1],inactive
CC(C)C[C@H](NC(=O)CCC1CCCCC1)C(=O)N[C@@H](CC(C)C)C(=O)N[C@@H](CCN)C(=O)N1CCC[C@H]1C(=O)N[C@@H](CCCNC(=N)N)C(=O)N[C@@H](CC(N)=O)C(N)=O ({Propanoyl(3-cHex)}-LL[Dab]PRN-NH2),"remaining at 72 h, 50 µM",[2],98%
same,"remaining at 72 h, 50 µM",[3],95%
same,Activity,[4],Toxic
same,Activity,[1],100%
same,Activity,Neuromedin-U receptor 2 [5],Dose-dependent effect
same,EC50,Neuromedin-U receptor 2 [5],2.2 nM
same,Activity,[6],Active
same,Activity,[7],Toxic
CC(C)C[C@H](NC(=O)CCC1CCCCC1)C(=O)N[C@@H](CC(C)C)C(=O)N[C@@H](CC(=O)O)C(=O)N1CCC[C@H]1C(=O)N[C@@H](CCCNC(=N)N)C(=O)N[C@@H](CC(N)=O)C(N)=O ({Propanoyl(3-cHex)}-LLDPRN-NH2),Activity,Neuromedin-U receptor 2 [8],inactive
same,Activity,[9],inactive
same,Activity,Neuromedin-U receptor 2 [10],inactive
same,Activity,[11],inactive
CC(C)C[C@H](NC(=O)CCC1CCCCC1)C(=O)N[C@@H](CC(C)C)C(=O)N[C@H](C(=O)N1CCC[C@H]1C(=O)N[C@@H](CCCNC(=N)N)C(=O)N[C@@H](CC(N)=O)C(N)=O)[C@H](C)O,Activity,Neuromedin-U receptor 2 [12],inactive
same,Activity,[13],inactive
CC(C)C[C@H](NC(=O)CCC1CCCCC1)C(=O)N[C@@H](CC(C)C)C(=O)N[C@H](C(=O)N1CCC[C@H]1C(=O)N[C@@H](CCCNC(=N)N)C(=O)N[C@@H](CC(N)=O)C(N)=O)[C@@H](C)O,Activity,Neuromedin-U receptor 2 [12],inactive
same,Activity,[13],inactive
COC[C@H](NC(=O)[C@H](CC(C)C)NC(=O)[C@H](CC(C)C)NC(=O)CCC1CCCCC1)C(=O)N1CCC[C@H]1C(=O)N[C@@H](CCCNC(=N)N)C(=O)N[C@@H](CC(N)=O)C(N)=O ({Propanoyl(3-cHex)}-LLS(Me)PRN-NH2),Activity,Neuromedin-U receptor 2 [12],inactive
same,Activity,[13],inactive
CC(C)C[C@H](NC(=O)CCC1CCCCC1)C(=O)N[C@@H](CC(C)C)C(=O)N[C@@H](CO)C(=O)N1CCC[C@H]1C(=O)N[C@@H](CCCNC(=N)N)C(=O)N[C@@H](CC(N)=O)C(N)=O ({Propanoyl(3-cHex)}-LLSPRN-NH2),Activity,Neuromedin-U receptor 2 [8],Active
same,Activity,[9],inactive
same,Activity,Neuromedin-U receptor 2 [10],inactive
same,Activity,[11],Active
CC(C)C[C@H](NC(=O)CCC1CCCCC1)C(=O)N[C@@H](CC(C)C)C(=O)NCC[C@H](N)C(=O)N1CCC[C@H]1C(=O)N[C@@H](CCCNC(=N)N)C(=O)N[C@@H](CC(N)=O)C(N)=O (H-[Dab]([Leu-Leu-Propanoyl(3-cHex)])PRN-NH2),Activity,Neuromedin-U receptor 2 [8],6%
same,Activity,[11],6%
CC(C)C[C@H](NC(=O)CCC1CCCCC1)C(=O)N[C@@H](CC(C)C)C(=O)N[C@@H](Cc1ccncc1)C(=O)N1CCC[C@H]1C(=O)N[C@@H](CCCNC(=N)N)C(=O)N[C@@H](CC(N)=O)C(N)=O ({Propanoyl(3-cHex)}-LL[4Pal]PRN-NH2),Activity,[1],20 to 40%
CC(C)C[C@H](NC(=O)CCC1CCCCC1)C(=O)N[C@@H](CC(C)C)C(=O)N[C@@H](CC(N)=O)C(=O)N1CCC[C@H]1C(=O)N[C@@H](CCCNC(=N)N)C(=O)N[C@@H](CC(N)=O)C(N)=O ({Propanoyl(3-cHex)}-LLNPRN-NH2),Activity,[9],inactive
same,Activity,Neuromedin-U receptor 2 [10],inactive
CC(C)C[C@H](NC(=O)CCC1CCCCC1)C(=O)N[C@@H](CC(C)C)C(=O)N[C@@H](CCO)C(=O)N1CCC[C@H]1C(=O)N[C@@H](CCCNC(=N)N)C(=O)N[C@@H](CC(N)=O)C(N)=O ({Propanoyl(3-cHex)}-LL[hSer]PRN-NH2),Activity,Neuromedin-U receptor 2 [12],inactive
same,Activity,[13],inactive
CC(C)C[C@H](NC(=O)CCC1CCCCC1)C(=O)N[C@@H](CC(C)C)C(=O)N[C@@H](CN)C(=O)N1CCC[C@H]1C(=O)N[C@@H](CCCNC(=N)N)C(=O)N[C@@H](CC(N)=O)C(N)=O ({Propanoyl(3-cHex)}-LL[Dap]PRN-NH2),"remaining at 72 h, 50 µM",[14],89%
same,"remaining at 72 h, 50 µM",[2],81%
same,"remaining at 72 h, 50 µM",[3],87%
same,"remaining at 72 h, 50 µM",[15],92%
same,remaining at 72 h,[16],93%
same,"remaining at 72 h, 50 µM",[17],64%
CC(C)C[C@H](NC(=O)CCC1CCCCC1)C(=O)N[C@@H](CC(C)C)C(=O)N[C@@H](CS)C(=O)N1CCC[C@H]1C(=O)N[C@@H](CCCNC(=N)N)C(=O)N[C@@H](CC(N)=O)C(N)=O ({Propanoyl(3-cHex)}-LLCPRN-NH2),Activity,Neuromedin-U receptor 2 [12],inactive
same,Activity,[13],inactive
CC(C)C[C@H](NC(=O)CCC1CCCCC1)C(=O)N[C@@H](CC(C)C)C(=O)N[C@@H](Cc1cccnc1)C(=O)N1CCC[C@H]1C(=O)N[C@@H](CCCNC(=N)N)C(=O)N[C@@H](CC(N)=O)C(N)=O ({Propanoyl(3-cHex)}-LL[3Pal]PRN-NH2),Activity,[1],20 to 40%
